From patent US20070111251A1, “Chemical address tags” (priority 2003, published 2007)

Test system: live UACC-62 human melanoma cells
Experiment: Organelle-binding test: subcellular localization of styryl library compounds by fluorescence microscopy
Type: cell-based
Set-up: key to experimentally determined localization (subscript): The subscript m indicates experimentally determined mitochondrial localization; The subscript o indicates experimentally determined non-mitochondrial localization
Settings: for representative localization: FIG. 5, live UACC-62 cells; for experimentally determined localization (subscript): mitochondrial vs non-mitochondrial, live UACC-62 cells
Experimental: The synthesis was designed so that the reaction mixture can be used directly in biological screening; toxic catalysts (e.g., such as strong acids, bases, and metals) were avoided, and most of the low-boiling point solvents and catalysts (e.g., pyrrolidine) were removed during the microwave reaction, leaving only DMSO, a common solvent for biological sample preparation. In some embodiments, without further purification, the library compounds were incubated with live UACC-62 human melanoma cells growing on glass bottom 96-well plates, and the localizations of the different compounds in the cells were determined using an Axiovert (Carl Zeiss, Inc., Thornwood, N.Y.) microscope (λex=405, 490, and 570 nm; λem>510 nm) with a 100× Zeiss oil immersion objective. […] The images in FIG. 5 show cells stained with selected fluorescent compounds.
Unless otherwise noted in this example, the materials and solvents were obtained from commercial suppliers and were used without further purification. The plate reader used in this example was a Spectra Max Gemini XSF (Molecular Devices, Corp., Sunnyvale, Calif.). In preferred embodiments, for organelle-binding tests, UACC-62 melanoma cells were selected amongst a panel of 60 human cancer cell lines, because their well-spread morphology on glass made them ideally suited for imaging purposes as well as their relevance to biomedical research. (See e.g., R. H. Shoemaker et al., Development of human tumor cell line panels for use in disease oriented drug screening. In: Hall, T. ed., Prediction of Response to Anti-cancer Chemotherapy, New York N.Y.: Alan Liss, 265-286 [1988]).
In some of these embodiments, UACC-62 cells (obtained from the Developmental Therapeutics Program at the National Cancer Institute) were grown in RPMI medium supplemented with 10% fetal calf serum. For microscopy, cells were plated on 96 well tissue-culture plates (Falcon) overnight, in RPMI plus 10% fetal calf serum, at 37° C. in 5% CO2/95% air. Cells were incubated with compounds at an approximate concentration of 50 μM for 1 hour.
A Zeiss Axiovert 135M (Carl Zeiss, Inc., Thornwood, N.Y.) inverted fluorescence microscope outfitted with a FITC/TRITC multipass filter cube (Chroma Technology, Corp., Rockingham, Vt.) was used for screening and routine cell biological fluorescence imaging applications. In some embodiments, epifluorescence microscopy was performed using a Zeiss Axiovert epifluorescence microscope equipped with a 20× objective.
The library compounds, without further purification, were incubated with live UACC-62 human melanoma cells growing on glass bottom 96-well plates (Sigma-Aldrich Corp., St. Louis, Mo.), and the localizations of the different compounds in the cells were determined by an inverted fluorescence microscope (λex=405, 490, and 570 nm; λem>510 nm) at 1000× magnification. Based on their morphology and subcellular distribution, the localizations were ascribed to mitochondria, ER (endoplasmic reticulum), nucleoli, nuclear, and cytoplasmic staining patterns such as diffuse (based on the homogenous staining appearance and exclusion from the nucleus), granular (punctate staining pattern, generally associated with the cell margins) or vesicular (heterogeneous staining pattern, generally associated with the nuclear periphery). Localization studies were performed without a priori information of the compounds' molecular structures. It was possible to ascribe the localization of the compounds to nucleus or cytoplasm, as these organelles are clearly discernible with phase contrast optics. Similarly, it was possible to ascribe localization to nucleoli, as these structures appeared as the most prominent, phase-dense structures within the nucleus. Localization to mitochondria was based on the elongated, characteristic shape of these organelles, which stain positive with established mitochondrial-specific fluorescent probes, like […] or JC-1. (L. B. Chen, Methods Cell Bio., 29:103-123 [1989]). […]

## COc1ccc2c(ccc(/C=C/c3ccc(N(C)C)cc3)[n+]2C)c1.[I-] [Compound 119]
  representative localization: nucleolar

## COc1ccc2c(ccc(C=CC=Cc3ccc(N(C)C)cc3)[n+]2C)c1.[I-] [Compound 137]
  representative localization: cytosolic

## C[n+]1ccc(C=CCc2ccccc2)cc1.[I-] [Compound A1-B1]
  experimentally determined localization (subscript): o

## C(=Cc1cc[n+](C23CC4CC(CC(C4)C2)C3)cc1)Cc1ccccc1.[Br-] [Compound A1-B2]
  experimentally determined localization (subscript): o

## C[n+]1c(C=CCc2ccccc2)ccc2ccccc21.[I-] [Compound A1-B8]
  experimentally determined localization (subscript): m

## COc1ccc2c(ccc(C=CCc3ccccc3)[n+]2C)c1.[I-] [Compound A1-B9]
  experimentally determined localization (subscript): m

## Cc1ccnc(-c2cc(C=CCc3ccccc3)cc[n+]2C)c1.[I-] [Compound A1-B10]
  experimentally determined localization (subscript): m

## COc1ccc(C=Cc2ccc3cc(OC)ccc3[n+]2C)cc1.[I-] [Compound A10-B9]
  experimentally determined localization (subscript): o

## C[n+]1ccc(C=Cc2ccc(OCc3ccccc3)c(OCc3ccccc3)c2)cc1.[I-] [Compound A12-B1]
  representative localization: mitochondria
  experimentally determined localization (subscript): m

## C[n+]1ccccc1C=Cc1ccc(OCc2ccccc2)c(OCc2ccccc2)c1.[I-] [Compound A12-B3]
  experimentally determined localization (subscript): m

## CCc1ccc(C=Cc2ccc(OCc3ccccc3)c(OCc3ccccc3)c2)[n+](C)c1.[I-] [Compound A12-B5]
  experimentally determined localization (subscript): o

## C[n+]1ccc(C=Cc2ccc(OCc3ccccc3)c(OCc3ccccc3)c2)c2ccccc21.[I-] [Compound A12-B7]
  experimentally determined localization (subscript): m

## Cc1cccc(C=Cc2ccc(OCc3ccccc3)c(OCc3ccccc3)c2)[n+]1C.[I-] [Compound A12-B12]
  experimentally determined localization (subscript): o

## Cc1cc(C)[n+](C)c(C=Cc2ccc(OCc3ccccc3)c(OCc3ccccc3)c2)c1.[I-] [Compound A12-B13]
  experimentally determined localization (subscript): o

## COc1ccc(C=Cc2cc[n+](C34CC5CC(CC(C5)C3)C4)cc2)c2ccccc12.[Br-] [Compound A14-B2]
  experimentally determined localization (subscript): o

## COc1ccc(C=Cc2ccc3ccccc3[n+]2C)cc1O.[I-] [Compound A15-B8]
  experimentally determined localization (subscript): m

## Oc1ccc(C=Cc2cc[n+](C34CC5CC(CC(C5)C3)C4)cc2)cc1.[Br-] [Compound A16-B2]
  experimentally determined localization (subscript): m

## CC(=O)Nc1ccc(C=Cc2ccc3ccccc3[n+]2C)cc1.[I-] [Compound A18-B8]
  experimentally determined localization (subscript): m

## COc1ccc2c(ccc(C=Cc3ccc(NC(C)=O)cc3)[n+]2C)c1.[I-] [Compound A18-B9]
  experimentally determined localization (subscript): o

## CN(C)c1ccc(C=Cc2ccc3ccccc3[n+]2C)cc1.[I-] [Compound A19-B8]
  experimentally determined localization (subscript): o

## C[n+]1ccc(C=Cc2ccccc2[N+](=O)[O-])c2ccccc21.[I-] [Compound A20-B7]
  experimentally determined localization (subscript): m

## C[n+]1c(C=Cc2cccc([N+](=O)[O-])c2)ccc2ccccc21.[I-] [Compound A21-B8]
  experimentally determined localization (subscript): m

## COc1ccc2c(ccc(C=Cc3cccc([N+](=O)[O-])c3)[n+]2C)c1.[I-] [Compound A21-B9]
  experimentally determined localization (subscript): o

## COc1ccc2ccccc2c1C=Cc1cc[n+](C)cc1.[I-] [Compound A23-B1]
  experimentally determined localization (subscript): m

## COc1ccc2ccccc2c1C=Cc1cccc[n+]1C.[I-] [Compound A23-B3]
  experimentally determined localization (subscript): o

## COc1ccc2ccccc2c1C=Cc1c(C)ccc[n+]1C.[I-] [Compound A23-B4]
  experimentally determined localization (subscript): o

## C[n+]1ccc(C=Cc2c[nH]c3ccccc23)cc1.[I-] [Compound A24-B1]
  experimentally determined localization (subscript): o

## C(=Cc1c[nH]c2ccccc12)c1cc[n+](C23CC4CC(CC(C4)C2)C3)cc1.[Br-] [Compound A24-B2]
  representative localization: mitochondria
  experimentally determined localization (subscript): m

## Cc1cc[n+](C)c(/C=C/c2c[nH]c3ccccc23)c1.[I-] [Compound A24-B11]
  experimentally determined localization (subscript): m

## CN(C)c1ccc(C=Cc2cc[n+](C)cc2)c2ccccc12.[I-] [Compound A27-B1]
  experimentally determined localization (subscript): o

## CN(C)c1ccc(C=Cc2ccc3ccccc3[n+]2C)c2ccccc12.[I-] [Compound A27-B8]
  experimentally determined localization (subscript): m

## Cc1ccnc(-c2cc(C=CC=Cc3ccccc3)cc[n+]2C)c1.[I-] [Compound A35-B10]
  experimentally determined localization (subscript): o

## Cc1cccc(C=CC=Cc2ccccc2)[n+]1C.[I-] [Compound A35-B12]
  experimentally determined localization (subscript): m

## Cc1ccc[n+](C)c1C=CC=Cc1ccc(N(C)C)cc1.[I-] [Compound A37-B4]
  experimentally determined localization (subscript): m

## Cc1ccnc(-c2cc(C=CC=Cc3ccc(N(C)C)cc3)cc[n+]2C)c1.[I-] [Compound A37-B10]
  representative localization: reticular
  experimentally determined localization (subscript): o

## COc1cc(OC)c(OC)cc1C=Cc1cc[n+](C23CC4CC(CC(C4)C2)C3)cc1.[Br-] [Compound A38-B2]
  experimentally determined localization (subscript): m

## COc1cc(OC)c(OC)cc1C=Cc1cc[n+](C)c2ccccc12.[I-] [Compound A38-B7]
  experimentally determined localization (subscript): o

## COc1cc(OC)c(OC)cc1C=Cc1cc[n+](C)c(-c2cc(C)ccn2)c1.[I-] [Compound A38-B10]
  experimentally determined localization (subscript): m

## C[n+]1c(C=Cc2ccc3c(c2)OCO3)ccc2ccccc21.[I-] [Compound A39-B8]
  experimentally determined localization (subscript): o

## C[n+]1c(C=Cc2ccc(OCc3ccccc3)c(OCc3ccccc3)c2)ccc2ccccc21.[I-] [Compound H12]
  representative localization: vesicular

## C[n+]1c(C=Cc2ccc3c(c2)Cc2ccccc2-3)ccc2ccccc21.[I-] [Compound H28]
  representative localization: nuclear
